In the supplement of paper PMC11208160:

Assay: recombinant barcode read abundance after kanamycin selection (control-corrected) (log10(CPM+1)); higher = more efficient recombination; sequences stand for … in AGTGCAGAGAAAATCGGCCAGTTTTCTCTGCCTGCAGTCCGCATGCCGT…AGATTTATGCAGCGGACTGCCTTTCTCCCAAAGTGATAAACCGGACAGTATCATGGACCGGTTTTCCCGGTAATCCGTATTTGCAAGGTTGGTTTCACT; site = the 11-nt target
Method in brief: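 IS621 bridge RNA target-binding loops were paired with targets in a pooled library tested in E. coli. After co-electroporation with a donor plasmid, cells were plated in two replicates on chloramphenicol/ampicillin LB agar (control) and on chloramphenicol/ampicillin/kanamycin carrying 0.1 mM IPTG. Barcodes at recombinant junctions were counted as counts per million, averaged and control-corrected to give recombination efficiency. Values are log10(CPM+1).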
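Further: IS621 recombinase and bridge RNA in Escherichia coli cells.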

Sequence | recombinant barcode read abundance (log10)
TAGTGAACTTGGGTTCTAACCTGTTGCAC (site TAGTGAACTGT) | 0.347
TAGTGCTCTTGGGTTCTAACCTGTTGCCA (site TAGTGCTCTAG) | 0.444
TAGTGCTCTTGGGTTCTAACCTGTTGCCA (site TAGTGCTCTCG) | 0.0477
TAGTGCTCTTGGGTTCTAACCTGTTGCCA (site TAGTGCTCTGG) | 0.00954
TAGTGCTCTTGGGTTCTAACCTGTTGCCA (site TAGTGCTCTTG) | 1.16
TAGTGCTCTTGGGTTCTAACCTGTTGCCG (site TAGTGCTCTAG) | 0.595
TAGTGCTCTTGGGTTCTAACCTGTTGCCG (site TAGTGCTCTCG) | 1.24
TAGTGCTCTTGGGTTCTAACCTGTTGCCG (site TAGTGCTCTGG) | 0.0187
TAGTGCTCTTGGGTTCTAACCTGTTGCCG (site TAGTGCTCTTG) | 0.355
TAGTGCTCTTGGGTTCTAACCTGTTGCTC (site TAGAGCTCTCA) | 0.185
TAGTGCTCTTGGGTTCTAACCTGTTGCTC (site TAGTGCTCTGA) | 1.07
TAGTGGACTTGGGTTCTAACCTGTTGCCA (site TAGTGGACTTG) | 0.466
TAGTGGACTTGGGTTCTAACCTGTTGCCA (site TAGTGGCCTTG) | 0.151
TAGTGTGCTTGGGTTCTAACCTGTTGCTT (site TAGTGTGCTAA) | 0.31
TAGTGTGCTTGGGTTCTAACCTGTTGCTT (site TAGTGTGCTAC) | 0.117
TAGTTACCTTGGGTTCTAACCTGTTGCCG (site TACTTAGCTCG) | 0.00977
TAGTTACCTTGGGTTCTAACCTGTTGCCG (site TAGTTACCTCG) | 0.612
TAGTTAGCTTGGGTTCTAACCTGTTGCCC (site TAGTTAGCTAG) | 0.0394
TAGTTAGCTTGGGTTCTAACCTGTTGCCC (site TAGTTAGCTCG) | 0.0413
TAGTTAGCTTGGGTTCTAACCTGTTGCCC (site TAGTTAGCTGG) | 0.945
TAGTTAGCTTGGGTTCTAACCTGTTGCCC (site TAGTTAGCTTG) | 0.0262
TAGTTGACTTGGGTTCTAACCTGTTGCCA (site TAGTTAACTTG) | 0.45

Sequence | recombinant barcode read abundance (log10)
TAGTTGACTTGGGTTCTAACCTGTTGCCA (site TAGTTCACTTG) | 0.00742
TAGTTGACTTGGGTTCTAACCTGTTGCCA (site TAGTTGACTTG) | 0.986
TAGTTGACTTGGGTTCTAACCTGTTGCCA (site TAGTTTACTTG) | 0.0255
TATAAGACTTGGGTTCTAACCTGTTGCAC (site TAGAAGACTAT) | 0.587
TATAAGACTTGGGTTCTAACCTGTTGCAC (site TATAAGACTGT) | 0.755
TATAATACTTGGGTTCTAACCTGTTGCGA (site TATAATACTTC) | 0.32
TATAATACTTGGGTTCTAACCTGTTGCGA (site TATACTACTTA) | 0.0449
TATAATGCTTGGGTTCTAACCTGTTGCGT (site ATCGGACCTCA) | 0.15
TATAATGCTTGGGTTCTAACCTGTTGCGT (site TATAATGCTAC) | 0.335
TATACTACTTGGGTTCTAACCTGTTGCTA (site TATAATACTTC) | 0.511
TATACTACTTGGGTTCTAACCTGTTGCTA (site TATACTACTTA) | 0.0716
TATAGCTCTTGGGTTCTAACCTGTTGCCT (site AATAGCTCTAG) | 0.0791
TATAGCTCTTGGGTTCTAACCTGTTGCCT (site CATAGCTCTAG) | 0.242
TATAGCTCTTGGGTTCTAACCTGTTGCCT (site GATAGCTCTAG) | 0.106
TATAGCTCTTGGGTTCTAACCTGTTGCCT (site TATAGCTCTAG) | 0.479
TATAGGGCTTGGGTTCTAACCTGTTGCCG (site GATAGGGCTCC) | 0
TATAGGGCTTGGGTTCTAACCTGTTGCCG (site TATAGGGCTCG) | 0.402
TATATATCTTGGGTTCTAACCTGTTGCAT (site AGGTGTCCTTC) | 0.112
TATATATCTTGGGTTCTAACCTGTTGCAT (site TATATATCTAT) | 0.23
TATCAGACTTGGGTTCTAACCTGTTGCAG (site TATCAGACTCT) | 1.45
TATCAGACTTGGGTTCTAACCTGTTGCAG (site TCTCAGGCTCT) | 0.121
TATCAGCCTTGGGTTCTAACCTGTTGCTT (site CATCAGCCTAC) | 0.0522

Sequence | recombinant barcode read abundance (log10)
TATCAGCCTTGGGTTCTAACCTGTTGCTT (site TATCAGCCTAA) | 0.0238
TATCCCTCTTGGGTTCTAACCTGTTGCCT (site ATCAAGCCTCT) | 0.18
TATCCCTCTTGGGTTCTAACCTGTTGCCT (site TATCCCTCTAG) | 1.14
TATCCGACTTGGGTTCTAACCTGTTGCCA (site TATCCGACTAG) | 0.56
TATCCGACTTGGGTTCTAACCTGTTGCCA (site TATCCGACTCG) | 0.142
TATCCGACTTGGGTTCTAACCTGTTGCCA (site TATCCGACTGG) | 0.0584
TATCCGACTTGGGTTCTAACCTGTTGCCA (site TATCCGACTTG) | 0.135
TATGGAGCTTGGGTTCTAACCTGTTGCTG (site AATGGGGCTCA) | 0.523
TATGGAGCTTGGGTTCTAACCTGTTGCTG (site TATGGAGCTCA) | 1.58
TATGGGACTTGGGTTCTAACCTGTTGCCT (site TATCGCACTAG) | 0.0772
TATGGGACTTGGGTTCTAACCTGTTGCCT (site TATGGGACTAG) | 1.25
TATGGTACTTGGGTTCTAACCTGTTGCGT (site GGGATACCTTA) | 0.0757
TATGGTACTTGGGTTCTAACCTGTTGCGT (site TATGGTACTAC) | 2.22
TATGGTTCTTGGGTTCTAACCTGTTGCCT (site TATGCTTCTAA) | 0.0349
TATGGTTCTTGGGTTCTAACCTGTTGCCT (site TATGGTTCTAG) | 0.502
TATTAGACTTGGGTTCTAACCTGTTGCCT (site AATTAGACTAG) | 0.158
TATTAGACTTGGGTTCTAACCTGTTGCCT (site CATTAGACTAG) | 0.13
TATTAGACTTGGGTTCTAACCTGTTGCCT (site GATTAGACTAG) | 0.209
TATTAGACTTGGGTTCTAACCTGTTGCCT (site TATTAGACTAG) | 0.225
TATTCTACTTGGGTTCTAACCTGTTGCGT (site TATTCTACTAC) | 0.0342
TATTCTACTTGGGTTCTAACCTGTTGCGT (site TATTCTACTCC) | 0.365
TATTCTACTTGGGTTCTAACCTGTTGCGT (site TATTCTACTGC) | 0.0341
